From US8957097B2, “Hemi-phorboxazole A derivatives and methods of their use” (The Trustees Of The University Of Pennsylvania, priority 2009, dated 2015)
Values after ≈ are worked out from the molar mass of the structure shown. Where two headings read alike, the source gives them in different places.

Columns and labels:
C. albicans UCD-FR1 = assay: antifungal microbroth dilution assay, C. albicans UCD-FR1; type: cell-based, Candida albicans; settings: for MIC: Candida albicans
Description: (§1) Tests of antifungal activity in microbroth dilution assay against pathogenic Candida strains was performed according to known methods. (National Committee for Clinical Laboratory Standards, 2002. Reference method for broth dilution antifungal susceptibility testing of yeast, 2nd ed. Approved standard M27-A2. National Committee for Clinical Laboratory Standards, Wayne, Pa.). For strains see: Mulder, R. J.; Shafer, C. M.; Dalisay, D. S.; Molinski, T. F. Bioorg. Med. Chem. Lett. 2009, 19, 2928-2930.

C. albicans 96-489 = assay: antifungal microbroth dilution assay, C. albicans 96-489; type: cell-based, Candida albicans
Description: as §1

C. albicans ACTCC 14503 = assay: antifungal microbroth dilution assay, C. albicans ACTCC 14503; type: cell-based, Candida albicans; settings: for MIC: Candida albicans
Description: as §1

HCT-116 Colon = assay: tumor cell growth inhibitory activity, HCT-116 colon; type: cell-based, human; settings: for IC50: Homo sapiens
Description: (§2) Compounds of the invention were assayed for tumor cell growth inhibitory activity, in parallel with (+) phorboxazole A (1) hemi-phorboxazole A (3).

SK-BR-3 Breast = assay: tumor cell growth inhibitory activity, SK-BR-3 breast; type: cell-based, human; settings: for IC50: Homo sapiens
Description: as §2

[1] = tested on: National Cancer Institute's panel of 60 human tumor cell lines; settings: mean over NCI panel of 60 human tumor cell lines; cited from earlier work
[2] = Table 6, HCT-116 colon tumor cells
[3] = Table 6, SK-BR-3 breast tumor cells
[4] = Table 5, HCT-116 colon tumor cells

Row | SMILES | C. albicans UCD-FR1 MIC (C. albicans UCD-FR1; Table 8, microbroth dilution) [µg/mL] | C. albicans 96-489 MIC (C. albicans 96-489; Table 8, microbroth dilution) [µg/mL] | C. albicans ACTCC 14503 MIC (C. albicans ACTCC 14503; Table 8, microbroth dilution) [µg/mL] | HCT-116 Colon IC50 (HCT-116 Colon; [2]) [ng/mL] | other results
1 | C=C1C[C@@H]2C[C@@H]3C[C@@H](O)C[C@@H](O3)c3coc(n3)/C=C/C[C@H]3O[C@@H](/C(C)=C/C#N)[C@H](C)[C@@H](OC(=O)/C=C\C[C@@H](C1)O2)[C@H]3C [HEMI-PHORBOXAZOLE A, Hemi-Phorboxazole A] | >64 | >64 | >64 | >6200 | MIC (C. albicans UCD-FR1; UCDFR1, read-out: C. albicans UCD-FR1 MIC): > 64 µg/mL; MIC (C. albicans 96-489; Candida albicans, 96489, read-out: C. albicans 96-489 MIC): > 64 µg/mL; MIC (C. albicans ACTCC 14503; ACTCC14503, read-out: C. albicans ACTCC 14503 MIC): > 64 µg/mL; IC50 (HCT-116 Colon; HCT-116, read-out: HCT-116 Colon IC50): > 6200 ng/mL; IC50 (SK-BR-3 Breast; SK-BR-3, read-out: SK-BR-3 Breast IC50): > 6200 ng/mL; SK-BR-3 Breast IC50 (SK-BR-3 Breast; [3]): >6200 ng/mL
2 | C=C1C[C@@H]2C[C@H]3C[C@@H](O)C[C@H](O3)c3coc(n3)/C=C\C[C@H]3O[C@@H](/C(C)=C/c4coc(C[C@]5(O)C[C@H](OC)C[C@H]([C@H](O)/C=C(C)/C=C/[C@@H](C/C=C/Br)OC)O5)n4)[C@H](C)[C@@H](OC(=O)/C=C\C[C@@H](C1)O2)[C@H]3C [Compound 2, Phorboxazole B] |  |  |  |  | GI50 [1]: 1.58 nM
3 | C=C1C[C@@H]2C[C@@H]3CCO[C@@H](O3)c3cccc(c3)/C=C/C[C@H]3O[C@@H](/C(C)=C/C#N)[C@H](C)[C@@H](OC(=O)/C=C\C[C@@H](C1)O2)[C@H]3C [Compound (Z, E)-6] |  |  |  | 207 | SK-BR-3 Breast IC50 (SK-BR-3 Breast; [3]): 258 ng/mL
4 | C=C1C[C@@H]2C[C@@H]3CCO[C@@H](O3)c3coc(n3)/C=C/C[C@H]3O[C@@H](/C(C)=C/C#N)[C@H](C)[C@@H](OC(=O)/C=C/C[C@@H](C1)O2)[C@H]3C [Compound (E, E)-5] |  |  |  |  | C. albicans UCD-FR1 MIC (C. albicans UCD-FR1; Table 7, microbroth dilution): 8 µg/mL; C. albicans 96-489 MIC (C. albicans 96-489; Table 7, microbroth dilution): 32 µg/mL; C. albicans ACTCC 14503 MIC (C. albicans ACTCC 14503; Table 7, microbroth dilution): 4 µg/mL; HCT-116 Colon IC50 (HCT-116 Colon; [4]): 1540 ng/mL
5 | C=C1C[C@@H]2C[C@@H]3CCO[C@@H](O3)c3cccc(c3)/C=C/C[C@H]3O[C@@H](/C(C)=C/c4ncco4)[C@H](C)[C@@H](OC(=O)/C=C\C[C@@H](C1)O2)[C@H]3C [Compound 27] | 8 | 32 | 4 | 5440 | 
6 | C=C1C[C@@H]2C[C@@H]3CCO[C@@H](O3)c3cccc(c3)/C=C/C[C@H]3O[C@@H](/C(C)=C/I)[C@H](C)[C@@H](OC(=O)/C=C/C[C@@H](C1)O2)[C@H]3C [Compound (E, E)-24] | >64 | >64 | >64 | >6250 | 
7 | C=C1C[C@@H]2C[C@@H]3CCO[C@@H](O3)c3coc(n3)/C=C/C[C@H]3O[C@@H](/C(C)=C/I)[C@H](C)[C@@H](OC(=O)/C=C/C[C@@H](C1)O2)[C@H]3C [Compound (E, E)-15] |  |  |  |  | C. albicans UCD-FR1 MIC (C. albicans UCD-FR1; Table 7, microbroth dilution): >64 µg/mL; C. albicans 96-489 MIC (C. albicans 96-489; Table 7, microbroth dilution): >64 µg/mL; C. albicans ACTCC 14503 MIC (C. albicans ACTCC 14503; Table 7, microbroth dilution): >64 µg/mL; HCT-116 Colon IC50 (HCT-116 Colon; [4]): >6250 ng/mL
8 | C=C1C[C@@H]2C[C@@H]3CCO[C@@H](O3)c3cccc(c3)/C=C\C[C@H]3O[C@@H](/C(C)=C/C#N)[C@H](C)[C@@H](OC(=O)/C=C/C[C@@H](C1)O2)[C@H]3C [Compound (E, Z)-6] | >64 | >64 | >64 | >6250 | 
9 | C=C1C[C@@H]2C[C@@H]3CCO[C@@H](O3)c3cccc(c3)/C=C\C[C@H]3O[C@@H](/C(C)=C/I)[C@H](C)[C@@H](OC(=O)/C=C/C[C@@H](C1)O2)[C@H]3C [Compound (E, Z)-24] | >64 | >64 | >64 | >6250 | 
10 | C=C1C[C@@H]2C[C@@H]3C[C@@H](O)C[C@@H](O3)c3coc(n3)/C=C/C[C@H]3O[C@@H](/C(C)=C/c4coc(C[C@]5(O)C[C@H](OC)C[C@H]([C@H](O)/C=C(C)/C=C/[C@@H](C/C=C/Br)OC)O5)n4)[C@H](C)[C@@H](OC(=O)/C=C\C[C@@H](C1)O2)[C@H]3C [Phorboxazole A] | 2.0 | 1.0 | 1.0 | 0.71 | MIC (C. albicans UCD-FR1; UCDFR1, Table 7, microbroth dilution, read-out: C. albicans UCD-FR1 MIC): 2 µg/mL (≈ 1.95 µM); MIC (C. albicans 96-489; Candida albicans, 96489, Table 7, microbroth dilution, read-out: C. albicans 96-489 MIC): 1 µg/mL (≈ 0.977 µM); MIC (C. albicans ACTCC 14503; ACTCC14503, Table 7, microbroth dilution, read-out: C. albicans ACTCC 14503 MIC): 1 µg/mL (≈ 0.977 µM); IC50 (HCT-116 Colon; Table 5, HCT-116 colon tumor cells, read-out: HCT-116 Colon IC50): 0.71 ng/mL (≈ 0.000693 µM); IC50 (SK-BR-3 Breast; Table 5, SK-BR-3 breast tumor cells, read-out: SK-BR-3 Breast IC50): 2 ng/mL (≈ 0.00195 µM); GI50 [1]: 1.58 nM
11 | C=C1C[C@@H]2C[C@@H]3CCO[C@@H](O3)c3coc(n3)/C=C/C[C@H]3O[C@@H](/C(C)=C/C#N)[C@H](C)[C@@H](OC(=O)/C=C\C[C@@H](C1)O2)[C@H]3C [Compound (Z, E)-5] |  |  |  |  | C. albicans UCD-FR1 MIC (C. albicans UCD-FR1; Table 7, microbroth dilution): 16 µg/mL; C. albicans 96-489 MIC (C. albicans 96-489; Table 7, microbroth dilution): >64 µg/mL; C. albicans ACTCC 14503 MIC (C. albicans ACTCC 14503; Table 7, microbroth dilution): 16 µg/mL; HCT-116 Colon IC50 (HCT-116 Colon; [4]): >6200 ng/mL; SK-BR-3 Breast IC50 (SK-BR-3 Breast; Table 5, SK-BR-3 breast tumor cells): >6200 ng/mL
12 | C=C1C[C@@H]2C[C@@H]3CCO[C@@H](O3)c3cccc(c3)/C=C/C[C@H]3O[C@@H](/C(C)=C/C#N)[C@H](C)[C@@H](OC(=O)/C=C/C[C@@H](C1)O2)[C@H]3C [Compound (E, E)-6] | >64 | >64 | >64 | >6250 | 
13 | C=C1C[C@@H]2C[C@@H]3CCO[C@@H](O3)c3cccc(c3)/C=C/C[C@H]3O[C@@H](/C(C)=C/c4cccs4)[C@H](C)[C@@H](OC(=O)/C=C\C[C@@H](C1)O2)[C@H]3C [Compound 28] | 16 | 32 | 8 | 5960 | 
14 | C=C1C[C@@H]2C[C@@H]3CCO[C@@H](O3)c3coc(n3)/C=C/C[C@H]3O[C@@H](/C(C)=C/I)[C@H](C)[C@@H](OC(=O)/C=C\C[C@@H](C1)O2)[C@H]3C [Compound (Z, E)-15] |  |  |  |  | C. albicans UCD-FR1 MIC (C. albicans UCD-FR1; Table 7, microbroth dilution): >64 µg/mL; C. albicans 96-489 MIC (C. albicans 96-489; Table 7, microbroth dilution): >64 µg/mL; C. albicans ACTCC 14503 MIC (C. albicans ACTCC 14503; Table 7, microbroth dilution): >64 µg/mL; HCT-116 Colon IC50 (HCT-116 Colon; [4]): >6250 ng/mL
15 | C=C1C[C@@H]2C[C@@H]3CCO[C@@H](O3)c3cccc(c3)/C=C/C[C@H]3O[C@@H](/C(C)=C/I)[C@H](C)[C@@H](OC(=O)/C=C\C[C@@H](C1)O2)[C@H]3C [Compound (Z, E)-24] | >64 | >64 | >64 | >6250 | 
